For four compounds, IC50 results are on record in BindingDB's records for doi:10.1016/j.bmcl.2011.06.070 (Novartis Institutes For Biomedical Research, 2011).

The structures appear in SMILES notation.

A short description of the test: Antagonist activity at CXCR3 in rat leukocytes assessed as inhibition of ITAC-induced cell migration by flow cytometry. In general terms: Flow cytometry measures light scatter and fluorescence of single cells or particles in a stream.
As for `O=C([C@@H]1C=C2c3cccc4[nH]cc(c34)C[C@H]2N(C(=O)Nc2ccccc2)C1)N1CCCC1`, the IC50 (in general, the concentration needed to halve the response being measured) was found to be 19 nM.

For the compound `O=C([C@@H]1C=C2c3cccc4[nH]cc(c34)C[C@H]2N(C(=O)Nc2ccccc2)C1)N1CCCCC1`, the IC50 is 13 nM. `CCN(CC)C(=O)[C@@H]1C=C2c3cccc4[nH]cc(c34)C[C@H]2N(C(=O)Nc2ccccc2)C1` [(6aR,9R)-N9,N9-diethyl-N7-phenyl-6,6a,8,9-tetrahydroindolo[4,3-fg]quinoline-7,9(4H)-dicarboxamide]: the IC50 came out at 74 nM. `O=C([C@@H]1C=C2c3cccc4[nH]cc(c34)C[C@H]2N(C(=O)Nc2ccccc2)C1)N1CCOCC1`: the 50% inhibitory concentration (IC50) was 78 nM.
